From US20260308116A1, “TERTIARY AMINE COMPOUNDS CONTAINING AN ALKYNE OR AN AZIDE MOIETY AND THEIR USE” (INSTITUT NATIONAL DE LA SANTÉ ET DE LA RECHERCHE MÉDICALE, priority 2023, published 2026)

Legend:
FA pathway = conditions: Semlow et al. 2016; Li et al. 2020; cited from earlier work
DNA [1] = conditions: photoactivated by UVA (Dunnick et al. 1987); cited from earlier work
HeLa FANCD2 KO cells = assay: Dual parameter plot assay (click / propidium iodide)
DNA [2] = assay: Detection of click agents in cells by microscopy (Alexa Fluor 647 azide)
HeLa cells [3] = assay: Reverse alkaline comet assay (ICL formation)
HeLa cells [4] = assay: Detection of G2 arrest by flow cytometry
HeLa cells [5] = assay: Repair of lesions in HeLa cells, click reaction and flow cytometry
[6] = tested on: fibroblast cells from XP patients (XP1, XP2); assay: Repair of lesions in XP patient fibroblasts
[7] = tested on: cells from subject C3 (non-XP); assay: Repair of lesions in control (non-XP) fibroblasts
[8] = tested on: primary fibroblast cells from non-FA subjects (C3, C4); assay: Repair of lesions in non-FA primary fibroblasts; assay type: cell-based
Procedure: HeLa, Jurkat and FA or XP primary cells (10^6 per dish) were seeded into 10 cm culture dishes and incubated overnight in culture medium. The following day, samples were treated with 0.5 μM click-Melphalan (Example 1), 0.5 μM click-MonoMelphalan (Example 2) or DMSO vehicle for 1 h. After treatment, cells were PBS-washed and released into medium. At designated time points, samples were harvested and fixed in EtOH 70%. Fixed cells where incubated in a click reaction buffer (50 μM Alexa fluor 647 azide, 1 mM copper (II) sulfate, 100 mM sodium ascorbate, 100 mM Tris-HCl pH 8.0) for 30 min at room temperature and then washed extensively using 3×5% FBS in PBS rinses to remove unbound reporter. Samples were stained with 5 μg/mL propidium iodide in 3% FBS in PBS and then analyzed using an LSR Fortessa flow cytometer (BD Biosciences, San Jose, CA). Ten thousand events were collected for each sample and gated using forward-versus side-scatter to eliminate cell debris and doublets. The data were analyzed using FlowJo software version 7.6.5 (Tree Star, San Carlos, CA).
FA patient skin fibroblast cells were cryopreserved at Saint-Louis Hospital (Paris, France). Informed consents were obtained from the patients and/or their relatives and IRB approval from the INSERM was given under the number 12-078. […]

HeLa cells [9] = assay: Clonogenic survival assay
HeLa cells [10] = assay: Dual parameter plot assay (click / propidium iodide)
[11] = tested on: primary fibroblast cells from FA patients (FA1, FA2); assay: Repair of lesions in FA patient primary fibroblasts

| Structure (SMILES) | repair of psoralen-induced ICLs by FA (FA pathway) | type of DNA lesions generated (DNA [1]) | cell cycle block and repair until 48 h (HeLa FANCD2 KO cells) | fluorescence in cells after click reaction (DNA [2]) | IR-induced tail moment after pre-treatment (HeLa cells [3]) | visual comet score in the absence of IR (HeLa cells [3]) | overall biological response, melphalan vs click-melphalan (HeLa cells [4]) | effect of added non-clickable melphalan on repair of click-mono-melphalan monoadducts (HeLa cells [5]) | cells still positive for melphalan [6] [%] | cells still positive for melphalan [7] [%] | cells still positive for melphalan [8] | number of colonies formed (clonogenic survival) (HeLa cells [9]) | toxicity compared to mono-melphalan (HeLa cells [9]) | cell cycle phase of positive cells at 12 h (HeLa cells [10]) | fluorescence at 24 h (HeLa cells [10]) | repair at 48 h (HeLa cells [10]) | cells still positive for melphalan [11] [%] | persistence of melphalan-induced lesions [11] |
| --- | --- | --- | --- | --- | --- | --- | --- | --- | --- | --- | --- | --- | --- | --- | --- | --- | --- | --- |
| O=c1ccc2cc3ccoc3cc2o1 [Psoralen] | not preferentially repaired by FA | almost exclusively ICLs | – | – | – | – | – | – | – | – | – | – | – | – | – | – | – | – |
| N[C@@H](Cc1ccc(N(CCCl)CCCl)cc1)C(=O)O [melphalan, (S)-2-amino-3-(4-(bis(2-chloroethyl)amino)phenyl)propanoic acid, reference compound] | – | – | remained blocked in late S-G2 phase until 48 h with unrepaired DNA lesions | do not present significant levels of fluorescence | large decrease in the IR-induced tail moment | neither Melphalan, click-Melphalan (Example 1), mono-melphalan (Comparative Example 1) nor click-mono-melphalan (Example 2) generated a visual comet score beyond the vehicle-treated control | equivalent biological response | inhibited by the addition of non-clickable melphalan during the first 24 h of recovery | ~75 | 25 | less than 25% | similarly reduces the number of colonies formed with no significative differences | higher toxicity of melphalan compared to mono-melphalan | most of the HeLa positive cells are blocked in late S-G2 | a decrease in fluorescence is observed at 24 h | full repair at 48 h | ~100 | persisted in the FA patient cells up to 48 h |
